Measured values as given in ChEMBL document CHEMBL5726833, “Heterocyclic compounds useful as pim kinase inhibitors” (2018).

Experiments:
[1] = target: Serine/threonine-protein kinase pim-1 (Homo sapiens, UniProt P11309); assay: (§1) Enzyme Assay: Pim-1 and Pim-3 kinase assays—20 μL reactions were run in white 384 well polystyrene plates dotted with 0.8 μL compound/DMSO in the assay buffer (50 mM Tris, pH 7.5, 0.01% Tween-20, 5 mM mgCl2, 0.01% BSA, 5 mM DTT), containing 0.05 μM Biotin-labeled BAD peptide substrate (AnaSpec 62269), 1 mM ATP, and 2.5 pM (Pim-1, Invitrogen PV3503) or 1.25 pM (Pim-3, Millipore 14-738) enzyme for 1 h at 25° C. Reactions were stopped by addition of 10 μL STOP Buffer (150 mM Tris, pH=7.5, 150 mM NaCl, 75 mM EDTA, 0.01% Tween-20, 0.3% BSA,) supplemented with Phospho-Bad (Ser112) Antibody (Cell Signaling 9291) diluted 666-fold, and Streptavidin donor beads (PerkinElmer 6760002) along with Protein-A acceptor beads (PerkinElmer 6760137) at […] each. Supplementation of the STOP buffer with beads and stopping the reactions were done under reduced light. Prior to the stopping reactions STOP buffer with beads was preincubated for 1 h in the dark at room temperature. After stopping the reactions, plates were incubated for 1 h in the dark at room temperature before reading on a PHERAstar FS plate reader (BMG Labtech) under reduced light.
Serine/threonine-protein kinase pim-1, sequence (P11309 whole entry): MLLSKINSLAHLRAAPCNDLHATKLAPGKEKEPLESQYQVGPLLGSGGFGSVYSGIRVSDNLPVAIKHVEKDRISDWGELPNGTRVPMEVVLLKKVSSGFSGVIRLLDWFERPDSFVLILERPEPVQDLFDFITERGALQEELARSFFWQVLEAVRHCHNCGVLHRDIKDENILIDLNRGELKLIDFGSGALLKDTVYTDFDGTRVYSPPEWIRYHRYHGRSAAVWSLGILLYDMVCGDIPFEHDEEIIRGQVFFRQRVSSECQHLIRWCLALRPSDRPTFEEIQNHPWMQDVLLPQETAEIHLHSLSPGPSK

[2] = target: Serine/threonine-protein kinase pim-3 (Homo sapiens, UniProt Q86V86); assay: as §1
[3] = target: Serine/threonine-protein kinase pim-2 (Homo sapiens, UniProt Q9P1W9); assay: Kinase Assay: Pim-2 kinase assay—20 μL reactions were run in white 384 well polystyrene plates dotted with 0.8 μL compound/DMSO in the assay buffer (50 mM Tris, pH 7.5, 0.01% Tween-20, 5 mM mgCl2, 0.01% BSA, 5 mM DTT), containing 0.05 μM Fluorescein-labeled CREBtide peptide substrate (Invitrogen PV3508), 1 mM ATP, and 1 nM enzyme (Invitrogen PV3649) for 2 h at 25° C. Reactions were stopped by addition of 10 μL TR-FRET Dilution Buffer (Invitrogen PV3574) with 30 mM EDTA and 1.5 nM LanthaScreen Tb-CREB pSer133 antibody (Invitrogen PV3566). After 30 min. incubation at room temperature, plates were read on a PHERAstar FS plate reader (BMG Labtech).
Serine/threonine-protein kinase pim-2, sequence (Q9P1W9 whole entry): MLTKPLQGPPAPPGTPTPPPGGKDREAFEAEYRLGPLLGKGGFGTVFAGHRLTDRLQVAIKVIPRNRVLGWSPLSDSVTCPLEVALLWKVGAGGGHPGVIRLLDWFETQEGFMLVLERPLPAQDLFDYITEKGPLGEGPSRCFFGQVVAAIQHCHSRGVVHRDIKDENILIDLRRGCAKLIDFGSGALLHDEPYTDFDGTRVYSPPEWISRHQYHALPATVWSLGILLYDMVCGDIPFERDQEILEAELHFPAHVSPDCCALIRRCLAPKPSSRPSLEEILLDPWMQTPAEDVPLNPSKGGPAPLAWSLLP

C[C@@H]1C[C@H](N)C[C@H](c2ccncc2NC(=O)c2ccc(F)c3cc(-c4c(F)cccc4F)cnc23)C1
IC50 [1]: < 10 nM
IC50 [2]: < 10 nM
IC50 [3]: < 100 nM
